According to patent publication US20130085178A1, “COMPOSITION FOR TREATING BONE DISEASE COMPRISING A GLYCEOLLIN AS AN ACTIVE INGREDIENT” (KYUNGPOOK NATIONAL UNIVERSITY INDUSTRY-ACADEMIC COOPERATION …, priority 2010, published 2013):
Entries after “also recorded” stand apart in the source; their conditions may differ. Peptide text beside a SMILES is read from it. * marks the point of attachment. Cbz = O=C(OCc1ccccc1)*

Columns and labels:
[1] = test system: Runx2; assay: Runx2 protein and mRNA level in MC3T3E1 cells during induction of differentiation; assay type: cell-based, mouse
Description: (§1) Osteoblasts isolated from calvarial of 18.5 days old mice and mouse MC3T3E1 cells were cultured in alpha-MEM containing 10% FBS at 37° C. in a humidified atmosphere containing 5% CO2. To induce differentiation of osteoblasts and MC3T3E1 cells, 50 μg/ml of ascorbic acid and 10 mM of beta-glycerophosphate are added to alpha-MEM containing 10% FBS. RAW264.7 (murine monocyte/macrophage) cells were cultured in D-MEM containing 10% FBS, and RANKL is added to alpha-MEM containing 10% FBS to induce differentiation to osteoclasts.
(§2) MC3T3E1 cells were treated with 0, 5, 10, 25 and 50 μM of glyceollin during induction of cellular differentiation. RAW264.7 cells were treated with 0, 5, 10 and 25 μM of glyceollin during induction of cellular differentiation. Osteoblasts isolated from mouse calvarial were treated with 0, 10 and 20 μM of glyceollin during induction of cellular differentiation. Osteoporosis mice induced by high dose vitamin D were daily injected 0, 0.5 and 5 μg/kg of glyceollin for 9 days.
(§3) To investigate the function of glyceollin on osteoblasts proliferation, morphology and number of glyceollin-treated MC3T3E1 cells were analyzed and MTT analysis was carried out.
To investigate whether the decrease of Runx2 protein is due to decrease of Runx2 mRNA, mRNA expression patterns were measured after treatment of glyceollin.
The Runx2 protein level decreased by glyceollin was recovered by MG132 (FIG. 1f).

[2] = test system: osteoblasts isolated from mouse calvarial; assay: Osteoblast differentiation by ALP staining, Alizarin Red staining and calcium contents; assay type: cell-based; conditions: 0, 10 and 20 μM glyceollin
Description: as §1, §2
Osteoblasts isolated from mouse calvarial were treated with 0, 10 and 20 μM of glyceollin during induction of cellular differentiation, and differentiation was analyzed by ALP staining (7 days after differentiation) and Alizarin Red staining (21 days after differentiation).
In addition, calcium contents of osteoblasts (21 days after differentiation) were measured and reduction of calcium was observed as glyceollin concentration increased (FIG. 3c).

[3] = test system: osteoporosis mouse model; assay: Osteoporosis mouse model induced by high dose vitamin D (micro CT, Trichrome staining, TRAP staining of calvarial); assay type: in vivo, mice (C57BL/6)
Description: Normal mice (C57BL/6) were subcutaneously injected with high dose vitamin D (60×10^4 IU/kg) to obtain osteoporosis mouse model, and monitored during 10 days after first injection. High dose vitamin D activates osteoclasts to reduce mouse bone mass.
as §2
To elucidate in vivo inhibitory effect of glyceollin on differentiation of osteoclasts which had been confirmed in vitro, osteoporosis mouse model injected with high dose vitamin D one time a day for 3 days. The mice treated with glyceollins one time a day for 9 days were sacrificed at 10 days after first injection and calvarial was observed by micro CT analysis, Trichrome staining and TRAP staining.

[4] = test system: osteoblasts isolated from mouse calvarial; assay: Proteins and mRNAs related to osteoblast differentiation (Runx2, osteocalcin, Rankl, Opg) in osteoblasts isolated from mouse calvarial; assay type: cell-based
Description: as §1, §2
Proteins and mRNAs related to osteoblast differentiation were measured in osteoblasts isolated from mouse calvarial which were treated with 0, 10 and 20 μM of glyceollin.
Consequently, Rankl/Opg ratio was decreased by glyceollins in osteoblast differentiation (FIG. 2c).

[5] = test system: RAW264.7 cells; assay: Differentiation of RAW264.7 cells to osteoclasts by TRAP staining; assay type: cell-based, murine; conditions: RANKL-induced, 0, 5, 10 and 25 μM glyceollin, TRAP stained 4 days after
Description: as §1, §2
RAW264.7 cells were treated with 0, 5, 10 and 25 μM of glyceollin during induction of differentiation, and then TRAP stained 4 days after to analyze osteoclasts.

[6] = test system: MC3T3E1 cells; assay: Osteoblast proliferation: morphology, cell number and MTT analysis of glyceollin-treated MC3T3E1 cells; assay type: cell-based, mouse; conditions: vs untreated cells
Description: as §1, §3

[7] = calvarial micro CT, 0, 0.5 and 5 μg/kg glyceollin daily for 9 days, sacrificed at 10 days
[8] = calvarial, osteoporosis mouse model by high dose vitamin D
[9] = mouse calvarial osteoblasts, 0, 10 and 20 μM glyceollin
[10] = mouse calvarial osteoblasts, real-time PCR, 0, 10 and 20 μM glyceollin, listed as glyceollins
[11] = 10 and 20 μM glyceollin during cellular proliferation

Molecule: CC(C)C[C@@H](C=O)NC(=O)[C@H](CC(C)C)NC(=O)[C@H](CC(C)C)NC(=O)OCc1ccccc1 [MG132, reference compound] (Cbz-Leu-Leu-Leu-aldehyde)
- Runx2 protein level decreased by glyceollin, after further treatment with proteasome inhibitor ([1]; MC3T3E1 cells, 20 μM glyceollin plus MG132 vs 20 μM glyceollin only): recovered

Molecule: glyceollin
- Runx2 protein level ([1]; MC3T3E1 cells, 0, 5, 10, 25 and 50 μM glyceollin during induction of differentiation): decreased as the concentration of glyceollin increased
- Runx2 mRNA level ([1]; MC3T3E1 cells, 10 and 20 μM glyceollin during induction of differentiation): not changed; also recorded: not affected
- differentiation of osteoblast by ALP staining ([2]; 7 days after differentiation): inhibited by glyceollin in dose-dependent manner
- calcium contents of osteoblasts ([2]; 21 days after differentiation): decreased as the concentration of glyceollin increased; also recorded: reduction
- differentiation of osteoblast by Alizarin Red staining ([2]; 21 days after differentiation): inhibited according to the concentration of glyceollin; also recorded: inhibited by glyceollin in dose-dependent manner
- osteoporosis of mouse calvarial mediated by high dose vitamin D (BMC, BMD and TMD analysis after CT) ([3]; administration of glyceollin): recovered
- bone mineral contents (BMC) [3, 7]: increased by glyceollin in dose-dependent manner
- bone mineral density (BMD) [3, 7]: increased by glyceollin in dose-dependent manner
- tissue mineral contents (TMC) [3, 7]: increased by glyceollin in dose-dependent manner
- collagen generation (Trichrome staining) [3, 8]: increased
- number of osteoclasts (TRAP staining) [3, 8]: decrease
- Runx2 mRNA level [4, 9]: not changed; also recorded: not affected
- osteocalcin mRNA level (differentiation marker of osteoblasts) [4, 9]: decreased according to the concentration of glyceollin; also recorded: Dose-dependent reduction
- Runx2 protein level ([4]; mouse calvarial osteoblasts, 0, 10 and 20 μM glyceollin, D21): decreased by glyceollin in dose-dependent manner
- Rankl/Opg ratio ([4]; mouse calvarial osteoblasts, osteoblast differentiation): decreased
- Rankl mRNA level ([4]; mouse calvarial osteoblasts, real-time PCR, 0, 10 and 20 μM glyceollin): decreased according to the concentration of glyceollin
- Opg mRNA level [4, 10]: not affected or slightly increased
- Rankl mRNA level [4, 10]: down-regulated
- differentiation to osteoclasts (TRAP stained osteoclasts) [5]: inhibited as the concentration of glyceollin increased; also recorded: reduced by glyceollin in dose-dependent manner
- morphology of MC3T3E1 cells ([6]; 20 μM glyceollin during cellular proliferation): similar; also recorded: no significant difference
- MTT assay for MC3T3-E1 cells [6, 11]: similar; also recorded: no significant difference
- number of MC3T3E1 cells [6, 11]: similar; also recorded: no significant difference
